# Data from patent publication US20250304576A1 (Cancer Research Technology Limited, priority 2022, published 2025).
# Assays:
# Recombinant IKKβ = target: T1, Recombinant IKKβ (Homo sapiens, UniProt O14920); test: DELFIA IKKβ kinase assay (apparent Ki, Cheng-Prusoff); format: biochemical
# T1 construct: purchased Millipore, Dundee, UK
# T1 sequence (O14920 1-756): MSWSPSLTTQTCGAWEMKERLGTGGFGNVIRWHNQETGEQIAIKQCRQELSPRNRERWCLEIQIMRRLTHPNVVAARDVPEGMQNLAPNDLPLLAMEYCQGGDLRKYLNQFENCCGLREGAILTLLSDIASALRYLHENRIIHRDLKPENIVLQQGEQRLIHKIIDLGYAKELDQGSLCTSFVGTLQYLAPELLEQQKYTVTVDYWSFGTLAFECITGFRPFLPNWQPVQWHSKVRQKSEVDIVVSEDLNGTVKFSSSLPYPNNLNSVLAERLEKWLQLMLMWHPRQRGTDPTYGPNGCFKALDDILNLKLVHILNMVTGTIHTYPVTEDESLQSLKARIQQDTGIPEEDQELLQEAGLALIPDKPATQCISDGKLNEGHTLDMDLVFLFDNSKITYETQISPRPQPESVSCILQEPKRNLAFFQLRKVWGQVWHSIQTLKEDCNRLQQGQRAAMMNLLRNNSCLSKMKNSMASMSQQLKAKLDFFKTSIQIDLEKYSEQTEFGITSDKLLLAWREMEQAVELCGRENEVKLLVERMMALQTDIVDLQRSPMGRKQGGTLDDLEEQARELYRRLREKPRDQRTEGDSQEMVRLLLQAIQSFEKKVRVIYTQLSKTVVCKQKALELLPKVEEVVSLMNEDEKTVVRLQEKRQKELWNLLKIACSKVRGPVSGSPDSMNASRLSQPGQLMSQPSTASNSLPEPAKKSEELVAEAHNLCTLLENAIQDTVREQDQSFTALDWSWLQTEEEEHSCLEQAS
# Description: (§1) IKKα and IKKβ inhibitory activity was determined using three different assays: a dissociation enhanced ligand fluorescent immunoassay (DELFIA) based on the protocol of HTScan™ IKKβ Kinase Assay (Cell Signaling Technology, USA); an Adapta IKKα assay (performed by Life Technologies); a Z′-LYTE™ IKKβ assay (performed by Life Technologies).
# (§2) Recombinant IKKα or IKKβ, 37 nM, (Millipore, Dundee, UK) was incubated with IηB-α (Ser32) (New England Biolabs, Hitchin, UK) biotinylated peptide substrate (0.375 μM) and 40 μM ATP in assay buffer (40 mM Tris-HCl (pH 7.5), 20 mM MgCl2, EDTA 1 mM, DTT 2 mM and BSA 0.01 mg/ml) in a V-well 96-well plate in the presence and absence of test compound. The assay plate was incubated for 60 minutes at 30° C. after which the kinase reaction was quenched by the addition of 50 mM EDTA, pH8. The resulting mixture was transferred to a streptavidin coated 96-well plate (Perkin Elmer, Beaconsfield, UK) and incubated for 1 hour at 30° C. to immobilise the substrate peptide. After three washes with wash buffer (0.01 M phosphate buffered saline (PBS), 0.05% Tween −20, pH 7.4) a primary antibody against the phosphorylated substrate (phospho-IηB-a) (Ser32/36) (5A5) Mouse mAb (New England Biolabs, Hitchin, UK) (1:1000 dilution with 1% bovine serum albumin (BSA) in wash buffer) was added and incubated at 37° C. for 2 h.
# (§3) After a further three washes, a secondary europiated antibody (Eu-N1 labelled anti-mouse IgG, (Perkin Elmer, Beaconsfield, UK) diluted 1:500 in 1% BSA/wash buffer) was added and incubated at 30° C. for 30 minutes. After a further five washes, DELFIA enhancement solution—(Perkin Elmer, Beaconsfield UK) was added and allowed to incubate for 10 min at room temperature, protected from light, to facilitate the chemifluorescent detection. The relative fluorescence units (RFU) signal were measured on a Wallac Victor 1420 multilabel counter (Perkin Elmer, Beaconsfield, UK), in time-resolved fluorescence mode. The counter was set at an excitation wavelength of 340 nm with a 400 μs delay before detecting emitted light at 615 nm. The apparent Ki of the […] was calculated for each compound using the Cheng-Prusoff Equation.
# (§4) The IKKα and IKKβ figures quoted in non-italicised form are from the DELFIA assay described above.
# Recombinant IKKα = target: T2, Recombinant IKKα (Homo sapiens, UniProt O15111); test: DELFIA IKKα kinase assay (apparent Ki, Cheng-Prusoff); format: biochemical
# T2 construct: purchased Millipore, Dundee, UK
# T2 sequence (O15111 1-745): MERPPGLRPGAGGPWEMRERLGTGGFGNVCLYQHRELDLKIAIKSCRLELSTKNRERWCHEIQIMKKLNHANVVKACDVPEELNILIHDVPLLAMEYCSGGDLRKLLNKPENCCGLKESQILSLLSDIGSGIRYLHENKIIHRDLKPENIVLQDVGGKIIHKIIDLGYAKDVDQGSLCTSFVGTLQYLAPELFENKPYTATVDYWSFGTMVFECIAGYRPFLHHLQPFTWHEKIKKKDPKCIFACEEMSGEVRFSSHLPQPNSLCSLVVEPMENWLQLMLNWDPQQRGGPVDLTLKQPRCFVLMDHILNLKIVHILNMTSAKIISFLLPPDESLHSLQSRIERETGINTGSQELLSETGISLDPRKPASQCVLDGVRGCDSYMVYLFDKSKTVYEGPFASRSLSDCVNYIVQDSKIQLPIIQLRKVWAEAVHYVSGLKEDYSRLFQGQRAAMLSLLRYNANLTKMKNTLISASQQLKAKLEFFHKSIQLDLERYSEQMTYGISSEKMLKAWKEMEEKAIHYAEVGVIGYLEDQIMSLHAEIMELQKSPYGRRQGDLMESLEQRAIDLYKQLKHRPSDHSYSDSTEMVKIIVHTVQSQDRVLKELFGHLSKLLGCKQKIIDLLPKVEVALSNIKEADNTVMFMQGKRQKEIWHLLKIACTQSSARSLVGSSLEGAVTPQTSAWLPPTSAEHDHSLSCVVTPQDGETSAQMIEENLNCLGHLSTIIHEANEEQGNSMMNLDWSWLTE
# Description: as §1, §2, §3, §4
# [1] = non-italicised figure: DELFIA assay
# [2] = DELFIA assay (first line of an example)
SMILES,Ki (Recombinant IKKβ; [1]) [nM],Ki (Recombinant IKKα; [1]) [nM],Ki (Recombinant IKKβ; [2]) [nM],Ki (Recombinant IKKα; [2]) [nM]
"Nc1cc(-c2cc(-c3cccc(O)c3)c3[nH]nc(N)c3c2)ccn1 [Example 108, 3-(3-Amino-5-(2-aminopyridin-4-yl)-1H-indazol-7-yl)phenol]",680,10,–,–
"CCCNc1cc(-c2ccc3[nH]nc(N)c3c2)ccn1 [Example 13, 5-(2-(Propylamino)pyridin-4-yl)-1H-indazol-3-amine]",251,49,–,–
"CC(C)(C)C#Cc1cc(-c2ccnc(Nc3cn[nH]c3)c2)cc2c(N)n[nH]c12 [Example 311, 5-(2-((1H-Pyrazol-4-yl)amino)pyridin-4-yl)-7-(3,3-dimethylbut-1-yn-1-yl)-1H-indazol-3-amine]",–,–,280,10
"CC(C)(C)C#Cc1cc(-c2ccnc(Nc3cc[nH]n3)c2)cc2c(N)n[nH]c12 [Example 310, 5-(2-((1H-Pyrazol-3-yl)amino)pyridin-4-yl)-7-(3,3-dimethylbut-1-yn-1-yl)-1H-indazol-3-amine]",–,–,205,48
"CC(C)CC(=O)Nc1cc(-c2cc(C#CC(C)(C)C)c3[nH]nc(N)c3c2)ccn1 [Example 171, N-(4-(3-Amino-7-(3,3-dimethylbut-1-yn-1-yl)-1H-indazol-5-yl)pyridine-2-yl)-3-methylbutanamide]",5680,122,–,–
"Nc1n[nH]c2ccc(-c3ccnc4[nH]c(CC5CCN(Cc6ccccc6)CC5)cc34)cc12 [Example 273, 5-(2-((1-benzylpiperidin-4-yl)methyl)-1H-pyrrolo[2,3-b]pyridin-4-yl)-1H-indazol-3-amine]",–,–,200,5
"Nc1n[nH]c2ccc(-c3ccnc(NC(=O)Nc4cccc(C(=O)Nc5ccccc5)c4)c3)cc12 [Example 61, 3-(3-(4-(3-Amino-1H-indazol-5-yl)pyridine-2-yl)ureido)-N-phenylbenzamide]",419,171,–,–
"Cc1noc(C)c1Nc1cc(-c2cc(C#CC(C)(C)C)c3[nH]nc(N)c3c2)ccn1 [Example 317, N-(4-(3-amino-7-(3,3-dimethylbut-1-yn-1-yl)-1H-indazol-5-yl)pyridin-2-yl)-3,5-dimethylisoxazol-4-amine]",–,–,4040,318
"Nc1n[nH]c2ccc(-c3ccnc(NC(=O)Nc4cccnc4)c3)cc12 [Example 69, 1-(4-(3-Amino-1H-indazol-5-yl)pyridin-2-yl)-3-(pyridin-3-yl)urea]",1190,42,–,–
"CC(C)(C)C#Cc1cc(-c2cc(N)ncc2C#N)cc2c(N)n[nH]c12 [Example 336, 6-Amino-4-(3-amino-7-(3,3-dimethylbut-1-yn-1-yl)-1H-indazol-5-yl)nicotinonitrile]",–,–,> 10000,> 10000
"Nc1n[nH]c2c(C#CC3(O)CCCCCC3)cc(-c3ccnc4[nH]ccc34)cc12 [Example 209, 1-((3-Amino-5-(1H-pyrrolo[2,3-b]pyridin-4-yl)-1H-indazol-7-yl)ethynyl)cycloheptan-1-ol]",–,–,2330,153
"COCCCNc1cc(-c2ccc3[nH]nc(N)c3c2)ccn1 [Example 26, 5-(2-((3-Methoxypropyl)amino)pyridine-4-yl)-1H-indazol-3-amine]",754,34,–,–
"CC(C)(O)C#Cc1cc(-c2ccnc(NC(=O)C3CC3)c2)cc2c(N)n[nH]c12 [Example 290, N-(4-(3-Amino-7-(3-hydroxy-3-methylbut-1-yn-1-yl)-1H-indazol-5-yl)pyridin-2-yl)cyclopropanecarboxamide]",–,–,242,55
Nc1cc(-c2cc(-c3cccnc3)c3[nH]nc(N)c3c2)ccn1 [Example 127],1680,114,–,–
"COC(=O)Nc1cc(-c2cc(-c3ccc(CN4CCOCC4)cc3)c3[nH]nc(N)c3c2)ccn1 [Example 328, Methyl (4-(3-amino-7-(4-(morpholinomethyl)phenyl)-1H-indazol-5-yl)pyridin-2-yl)carbamate]",–,–,407,24
"Nc1n[nH]c2c(C#CC3(O)CCCC3)cc(-c3ccnc(NC4COC4)c3)cc12 [Example 305, 1-((3-Amino-5-(2-(oxetan-3-ylamino)pyridin-4-yl)-1H-indazol-7-yl)ethynyl)cyclopentan-1-ol]",–,–,1090,96
"Nc1n[nH]c2ccc(-c3ccnc(NCCO)c3)cc12 [Example 20, 2-((4-(3-Amino-1H-indazol-5-yl)pyridine-2-yl)amino)ethan-1-ol]",630,46,–,–

# Next, values leading:
Ki (Recombinant IKKβ; [1]) [nM],Ki (Recombinant IKKα; [1]) [nM],Ki (Recombinant IKKβ; [2]) [nM],Ki (Recombinant IKKα; [2]) [nM],SMILES
335,5,–,–,"Nc1n[nH]c2ccc(-c3ccnc4[nH]c(C(=O)O)cc34)cc12 [Example 10, 4-(3-Amino-1H-indazol-5-yl)-1H-pyrrolo[2,3-b]pyridine-2-carboxylic acid]"
–,–,46,8,"CN(C)CCCNC(=O)c1cc2c(-c3ccc4[nH]nc(N)c4c3)ccnc2[nH]1 [Example 247, 4-(3-Amino-1H-indazol-5-yl)-N-(3-(dimethylamino)propyl)-1H-pyrrolo[2,3-b]pyridine-2-carboxamide]"
–,–,285,5,"CC(C)(C)N1CCN(Cc2cc3c(-c4ccc5[nH]nc(N)c5c4)ccnc3[nH]2)CC1 [Example 264, 5-(2-((4-(tert-Butyl)piperazin-1-yl)methyl)-1H-pyrrolo[2,3-b]pyridin-4-yl)-1H-indazol-3-amine]"
796,15,–,–,"Nc1n[nH]c2ccc(-c3ccnc(NCCCO)c3)cc12 [Example 21, 3-((4-(3-Amino-1H-indazol-5-yl)pyridine-2-yl)amino)propan-1-ol]"
–,–,30,5,"COCCNC(=O)c1cc2c(-c3ccc4[nH]nc(N)c4c3)ccnc2[nH]1 [Example 240, 4-(3-Amino-1H-indazol-5-yl)-N-(2-methoxyethyl)-1H-pyrrolo[2,3-b]pyridine-2-carboxamide]"
–,–,1470,56,"CC(C)CCNCc1cc2c(-c3ccc4[nH]nc(N)c4c3)ccnc2[nH]1 [Example 249, 5-(2-((Isopentylamino)methyl)-1H-pyrrolo[2,3-b]pyridine-4-yl)-1H-indazol-3-amine]"
–,–,59,6,"Nc1n[nH]c2ccc(-c3ccnc4[nH]c(CNc5ccccc5)cc34)cc12 [Example 252, 5-(2-((Phenylamino)methyl)-1H-pyrrolo[2,3-b]340yridine-4-yl)-1H-indazol-3-amine]"
